Article PMC10202811 (Nature Medicine, 2023)
“And” between values parts separate entries of the source, which are not always exact repeats. Identical values can stand only once. “Also recorded” adds a separate entry of the source. Marks after values point to notes of the source that are not given here.

Test: Toxicity assessment (CTCAE version 4): treatment-related AEs, DLTs, dose reductions, RP2D; phase 1 NANT2015-02
Conditions: for Toxicity Maximum Grade per patient: Sinus tachycardia / Toxicity Maximum Grade per patient: Neutrophil count decreased: CTCAE grade
Method: Five DLs (45, 60, 75, 95 and 115 mg/m^2/dose) were assessed in A1, using a 3 + 3 design. […] Myeloid growth factor was given 24 hours after the completion of topotecan/cyclophosphamide on B2, according to institutional standards. Instructions and hands-on training for a tablet dispersion formulation, validated by Pfizer, was provided to families of patients who could not swallow tablets.
Initially, this was the only DL planned, but, with a subsequent amendment, a second DL was added to cohort A2 (150 mg). […] Finally, because of the nature of the patients in cohort A2 (which had only two planned DLs), an expansion of up to six additional patients was planned for the highest DL tested with zero or one DLT in six DLT-evaluable patients. Accrual could continue in the expansion cohort as long as none, or at most one, of the patients experienced DLT in the DLT observation period; if two or more patients experienced DLT in the DLT observation period, this would lead to a discussion of the suitability of this dose. The probability of observing […] with DLT, out of six patients, is 0.11, 0.22, 0.47, 0.68 and 0.77 when the true probability of DLT is 0.10, 0.15, 0.25, 0.35 and 0.40, respectfully.
Patients who were not evaluable for DLT were replaced for dose-escalation purposes. […] The MTD was defined as the highest DL tested at which zero of six or one of six patients experience DLT. After determination of the MTD and review of all toxicities, and provided that other safety considerations were acceptable, the MTD was labeled the RP2D.
Toxicity was graded according to CTCAE version 4. DLT definitions included only toxicities deemed at least possibly related to therapy. For A1 and A2, hematologic DLT was defined as grade 4 thrombocytopenia or grade 4 neutropenia >7-day duration or a delay in the start of subsequent course by more than 14 days due to ongoing thrombocytopenia or neutropenia, in the absence of bone marrow disease progression seen on clinically indicated bone marrow biopsy (if performed). For cohort B2, hematological DLT is defined as a delay in the start of subsequent course by more than 14 days due to ongoing thrombocytopenia or neutropenia, in the absence of bone marrow disease progression seen on clinically indicated bone marrow biopsy after the first dose reduction of cyclophosphamide and topotecan. Non-hematologic DLT was defined as any non-hematologic toxicity that delayed the start of a subsequent cycle by more than 14 days or any grade ≥3 toxicity, with the exception of the following grade 3 toxicities: nausea, vomiting, anorexia or dehydration resolving to grade ≤2 within 72 hours; increase in hepatic transaminase or electrolyte abnormality resolving eligibility levels within 7 days; diarrhea persisting for less than 72 hours; fever; infection; febrile neutropenia; high cholesterol or triglycerides if responsive (to ≤grade 2) with statin treatment; weight gain; and hyperglycemia if responsive (to <grade 2) with dietary modification.

[1] = Cohort A1, neurotoxicity, one line per patient (PID)
[2] = Cohort A1, one line per patient (PID)

Compound: C[C@H]1Oc2cc(cnc2N)-c2c(nn(C)c2C#N)CN(C)C(=O)c2ccc(F)cc21 [Lorlatinib, (10R)-7-amino-12-fluoro-2,10,16-trimethyl-15-oxo-10,15,16,17-tetrahydro-2H-8,4-(metheno)pyrazolo[4,3-h][2,5,11]-benzoxadiazacyclotetradecine-3-carbonitrile]
- patients developing grade 2 CNS effects (<18 years (cohorts A1 and B2), two of 33): 6%
- patients requiring a dose reduction (<18 years, lorlatinib monotherapy): 9%
- CNS DLT (CTCAE V4) (A1 (< 18 yrs), DL 5 (115 mg/m^2)): Grade 2 hallucination/insomnia
- DLT (A1, DL5 (115 mg/m^2), course 1): YES
- Toxicity reason for Dose reduction (A1, DL5 (115 mg/m^2), course 1): Grade 3 Diarrhea (lactose intolerance)
- DLT (A1, DL5 (115 mg/m^2), course 3): Delayed DLT
- Toxicity reason for Dose reduction (A1, DL5 (115 mg/m^2), course 3): Grade 2 Hallucination/insomnia^1
- CNS DLT (CTCAE V4) (A2 (≥ 18 yrs), 100 mg): Grade 2 memory impairment
- CNS DLT (CTCAE V4) (A2 (≥ 18 yrs), 150 mg): Grade 2-4 hallucinations, delusions, suicidal ideations; also recorded: Grade 3 agitation^g; also recorded: Grade 4 Mania
- DLT (A2, 100 mg, course 3): Delayed DLT^2
- Toxicity reason for Dose reduction (A2, 100 mg, course 3): Grade 3 Hyperglycemia
- DLT (A2, 100 mg, course 7): Delayed DLT
- Toxicity reason for Dose reduction (A2, 100 mg, course 7): Grade 2 Memory impairment
- DLT (A2, 150 mg, course 2): YES
- Toxicity reason for Dose reduction (A2, 150 mg, course 2): Grade 2-4 Delusions, psychosis, suicide attempt^3
- DLT (A2, 150 mg, course 2 (second patient)): YES
- Toxicity reason for Dose reduction (A2, 150 mg, course 3): Grade 2 Lower extremity edema^5
- DLT (A2, 150 mg, course 4): Delayed DLT
- Toxicity reason for Dose reduction (A2, 150 mg, course 4): Grade 2 Peripheral neuropathy/edema
- Toxicity reason for Dose reduction (A2, 150 mg, course 5): Grade 2 Peripheral neuropathy^6
- CNS DLT (CTCAE V4) (B2 (< 18yrs), DL 5 (115 mg/m^2)): Grade 2 anxiety, depression, somnolence, hypersomnia
- DLT (B2, DL5 (115 mg/m^2), course 3): Delayed DLT
- Toxicity reason for Dose reduction (B2, DL5 (115 mg/m^2), course 3): Grade 2 anxiety, depression, somnolence, hypersomnia
- Patients with DLT in course 1 (Cohort A1, DL1 (45 mg/m^2)): 0
- Patients with DLT in course 2 (Cohort A1, DL1 (45 mg/m^2)): 0
- Patients with DLT in other courses (Cohort A1, DL1 (45 mg/m^2)): 0
- Patients with DLT in course 1 (Cohort A1, DL2 (60 mg/m^2)): 0
- Patients with DLT in course 2 (Cohort A1, DL2 (60 mg/m^2)): 0
- Patients with DLT in other courses (Cohort A1, DL2 (60 mg/m^2)): 0
- Patients with DLT in course 1 (Cohort A1, DL3 (75 mg/m^2)): 0
- Patients with DLT in course 2 (Cohort A1, DL3 (75 mg/m^2)): 0
- Patients with DLT in other courses (Cohort A1, DL3 (75 mg/m^2)): 0
- Patients with DLT in course 1 (Cohort A1, DL4 (95 mg/m^2)): 0
- Patients with DLT in course 2 (Cohort A1, DL4 (95 mg/m^2)): 0
- Patients with DLT in other courses (Cohort A1, DL4 (95 mg/m^2)): 0
- Patients with DLT in course 1 (Cohort A1, DL5 (115 mg/m^2)): 1^b
- Patients with DLT in course 2 (Cohort A1, DL5 (115 mg/m^2)): 0
- Patients with DLT in other courses (Cohort A1, DL5 (115 mg/m^2)): 1^b
- Toxicity Maximum Grade per patient: Sinus tachycardia (Cohort A1, patient PID 9): 2
- Toxicity Maximum Grade per patient: Sinus tachycardia (Cohort A1, patient PID 17): 1
- Toxicity Maximum Grade per patient: Sinus tachycardia (Cohort A1, patient PID 18): 1
- Toxicity Maximum Grade per patient: Neutrophil count decreased (Cohort A1, patient PID 21): 2
- Toxicity Maximum Grade per patient: Neutrophil count decreased (Cohort A1, patient PID 31): 3
- Amnesia (CNS effect) (Cohort A1, grade 1-4 in c1-c4): 0 (0)
- Confusion (CNS effect) (Cohort A1, grade 1-4 in c1-c4): 0 (0)
- Delirium (CNS effect) (Cohort A1, grade 1-4 in c1-c4): 0 (0)
- Delusions (CNS effect) (Cohort A1, grade 1-4 in c1-c4): 0 (0)
- Dysarthria (CNS effect) (Cohort A1, grade 1-4 in c1-c4): 0 (0)
- Euphoria (CNS effect) (Cohort A1, grade 1-4 in c1-c4): 0 (0)
- Hypersomnia (CNS effect) (Cohort A1, grade 1-4 in c1-c4): 0 (0)
- Mania (CNS effect) (Cohort A1, grade 1-4 in c1-c4): 0 (0)
- Paresthesia (CNS effect) (Cohort A1, grade 1-4 in c1-c4): 0 (0)
- Restlessness (CNS effect) (Cohort A1, grade 1-4 in c1-c4): 0 (0)
- Somnolence (CNS effect) (Cohort A1, grade 1-4 in c1-c4): 0 (0)
- Stuttering (CNS effect) (Cohort A1, grade 1-4 in c1-c4): 0 (0)
- Suicidal ideation (CNS effect) (Cohort A1, grade 1-4 in c1-c4): 0 (0)
- Agitation: Toxicity Maximum Grade per patient [1]: 1
- Anxiety: Toxicity Maximum Grade per patient [1]: 1
- Cognitive disturbance: Toxicity Maximum Grade per patient [1]: 1
- Concentration impairment: Toxicity Maximum Grade per patient [1]: 1
- Depression: Toxicity Maximum Grade per patient [1]: 1
- Hallucinations: Toxicity Maximum Grade per patient [1]: 2
- Headache: Toxicity Maximum Grade per patient [1]: 1
- Memory impairment: Toxicity Maximum Grade per patient [1]: 1
- Alanine aminotransferase increased: Toxicity Maximum Grade per patient [2]: 1 and 2
- Alkaline phosphatase increased: Toxicity Maximum Grade per patient [2]: 1 and 2
- Anemia: Toxicity Maximum Grade per patient [2]: 2 and 1 and 3
- Aspartate aminotransferase increased: Toxicity Maximum Grade per patient [2]: 1 and 3 and 2
- Cholesterol high: Toxicity Maximum Grade per patient [2]: 2 and 1 and 3
- Creatinine increased: Toxicity Maximum Grade per patient [2]: 1
- Diarrhea: Toxicity Maximum Grade per patient [2]: 1 and 3
- Edema limbs: Toxicity Maximum Grade per patient [2]: 1
- Electrocardiogram QT corrected interval prolonged: Toxicity Maximum Grade per patient [2]: 1
- Fatigue: Toxicity Maximum Grade per patient [2]: 1
- Flatulence: Toxicity Maximum Grade per patient [2]: 2 and 1
- Gastroesophageal reflux disease: Toxicity Maximum Grade per patient [2]: 2
- Hyperglycemia: Toxicity Maximum Grade per patient [2]: 1 and 3
- Hypertriglyceridemia: Toxicity Maximum Grade per patient [2]: 1 and 2 and 3
- INCREASED APPETITE: Toxicity Maximum Grade per patient [2]: 1
- Irritability: Toxicity Maximum Grade per patient [2]: 1
- Lymphocyte count decreased: Toxicity Maximum Grade per patient [2]: 1 and 3
